Assay results reported in US11851459B2, “Methods and uses of modulators of anaphase promoting complex (APC) activity for treating cancer” (University of Saskatchewan, priority 2018, dated 2023).
Entries after “also recorded” stand apart in the source; their conditions may differ.

Legend:
MDA-MB-231 cells [1] = assay: Scratch assay, migration of MDA-MB-231 cells; format: cell-based, human
Experimental: A. An equal number of MDA-MB-231 TNBC cells were grown to confluence in 6 well plates. The cells were then treated with increasing doses of metformin (0, 1, 5 and 10 mM) and a scratch was made in the cell lawn creating a void. At the times shown the number of cell that migrated into the void were counted. The experiment was repeated twice. B. WT MDA-MB-231 cells and cells stably expressing the C43-4 plasmid were grown as in A. Control cells were left untreated, with other cells treated with the DMSO control, 1 uM DOX or 2.5 uM M2I-1. A void was created in the cell lawn and the number of cells that entered the void were scored as above. This experiment was repeated 4 times. This experiment was also repeated 4 times in an independently generated stable C43-4 cell line with similar results. The error of the mean is shown. C. WT and MDA-MB-231 cells stably expressing the C2-4B peptide plasmid were used for the scratch assay as described above. D. WT and MDA-MB-231 cells stably expressing the C13-3 peptide plasmid were used for the scratch assay as described above. The experiments in C and D were only performed once.
Assays using WT and C43-4 expressing cells have been done 4 times. Assays using C13-3 and C2-4B cells have only been conducted once. Metformin treated cells have been used twice. For scratch assays, a scratch is made down a confluent plate of cells, leaving a void. The number of cells that migrate back into the void over time is determined.

Apc5 = target: T1, Apc5 (Saccharomyces cerevisiae, UniProt Q08683); assay: Yeast 2-hybrid (Y2H) assay, Apc5 bait; format: binding
T1 construct: expressed in transfected cells; host or cells: yeast Y2H cells
T1 sequence (Q08683 1-685): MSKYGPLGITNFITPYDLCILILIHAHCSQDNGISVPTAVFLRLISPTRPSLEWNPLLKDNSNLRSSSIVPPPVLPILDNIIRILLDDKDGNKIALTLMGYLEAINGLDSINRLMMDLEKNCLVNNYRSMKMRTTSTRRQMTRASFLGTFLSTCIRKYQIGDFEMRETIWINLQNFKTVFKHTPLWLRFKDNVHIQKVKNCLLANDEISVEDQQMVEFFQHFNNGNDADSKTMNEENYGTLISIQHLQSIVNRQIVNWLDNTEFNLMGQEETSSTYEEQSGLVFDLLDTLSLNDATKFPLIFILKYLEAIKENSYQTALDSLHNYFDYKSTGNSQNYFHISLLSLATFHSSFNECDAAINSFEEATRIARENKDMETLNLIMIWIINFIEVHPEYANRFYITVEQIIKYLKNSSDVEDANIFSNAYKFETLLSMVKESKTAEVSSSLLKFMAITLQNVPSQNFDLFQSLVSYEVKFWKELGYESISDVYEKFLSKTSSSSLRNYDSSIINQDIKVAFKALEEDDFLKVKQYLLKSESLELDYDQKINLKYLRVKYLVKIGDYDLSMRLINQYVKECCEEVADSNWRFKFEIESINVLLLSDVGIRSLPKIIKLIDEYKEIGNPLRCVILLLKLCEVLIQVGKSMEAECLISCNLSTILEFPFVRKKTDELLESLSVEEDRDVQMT
Experimental: (§1) The reverse genetic screen utilized a yeast 2-hybrid (Y2H) protocol that selected for peptides that bound to the APC subunits Apc5 or Apc10 (see FIG. 8 for APC structure), to assess whether peptide-binding might modify APC function. Peptides that bound APC subunits were then assayed for those that suppressed APC mutant defects.
(§2) To identify peptides that bound to either Apc5 or Apc10 proteins using a yeast 2-hybrid (Y2H) screen, random small peptides were cloned into the TrxA scaffold (library provided by R. Geyer; FIG. 9) and expressed from a galactose-inducible Y2H prey vector in cells harboring either the APC5 or APC10 genes cloned into the Y2H bait vectors (APC5/APC10 bait constructs complement APC mutant defects).
(§3) Over 100 peptides that bound either Apc5 or Apc10 were recovered from millions screened. Six peptides that reproducibly interacted with the Apc5 or Apc10 bait construct in Y2H assays were examined further. Vectors expressing these 6 peptides were transformed into WT or APC mutant cells and assessed for ts growth.

[2] = system: apc5 temperature sensitive mutant and/or apc10Δ mutant; assay: Viability of APC mutant yeast (spot dilution); format: cell-based
Excerpt: Suitable APC activators also include APC activators that increase the cell viability of an wild-type and/or an APC mutant cell by at least 10%, at least 20%, at least 30%, at least 40%, at least 50%, at least 60%, at least 70% or at least 80% compared to a cell with wild-type APC function. […] Examples of yeast cells with defective APC function include apc5 and apc10 mutants. An example of an apc5 mutant is the apc5 temperature sensitive mutant described herein. An example of an apc10 mutant is the apc10 deletion mutant described herein. Viability of a yeast mutant can be measured for example, by the spot dilution assays described herein or any other method known in the art.
as §1, §3

[3] = system: APC (substrates Cyclin B, Securin, Cdc20, HURP); assay: APC substrate westerns in MDA-MB-231 cells expressing peptides; format: cell-based, human; details: for levels of the APC substrate HURP: MDA-MB-231 stably transfected, normalized to tubulin; for levels of the APC substrate CDC20: MDA-MB-231 stably expressing peptides
Experimental: (§4) A. Transient transfection of the C43-4 peptide plasmid into human triple negative MDA-MB-231 breast cancer cells followed by Western blot analysis of lysates against Cyclin B, Securin and Cdc20 showing enhanced protein loss. B. Cells in A were treated with DOX (1 uM) for 48 hrs with cell viability measured using an MTT assay kit. The experiment was done in triplicate with standard error of the means shown.
(§5) A. Stable integration of C43-4 in MDA-MB-231 cells was established by selection of transfected cells on Geneticin for 7 days. Westerns against APC substrates show APC activation. B. Cells in A were treated with DOX (1 uM) for 48 hrs with cell viability measured using an MTT assay kit. Mean and SEM of 3 biological repeats.
(§6) A. TNBC MDA-MB-231 cells stably expressing APC binding peptides activate the APC. Cells were grown to confluence and then used to prepare protein lysates. The lysates were used to measure levels of the APC substrate CDC20, which will be reduced if the APC is activated. Cells stably expressing the pcDNA empty vector were used as a control. B. In a similar experiment, MDA-MB-231 cells stably expressing the APC binding peptides shown, or the empty vector control, were used to measure protein levels of the APC substrate HURP using Westerns. C. Triplicate blots as in B were scanned, normalized to tubulin and plotted. Error of the mean is shown. Significant changes are indicated. D. MDA-MB-231 cells stably expressing the empty pcDNA vector, or the C43-4 and C13-3 APC binding peptides, were treated with 1 μM Doxorubicin for 24 hrs. Cell viability was measured using an MTT viability assay.
The C43-4 peptide sequence was cloned into the human expression vector pcDNA. This construct was transiently, and stably, expressed in human breast cancer cell line MDA-MB-231. […] In 231 cells, which are triple negative, aggressive and somewhat resistant to Doxorubicin, the transiently and stably transfected C43-4 peptide resensitized them to DOX treatment (FIGS. 22B and 23B).
(§7) In FIG. 26B, MDA-MB-231 cells were also stably transfected with the peptides C1-8, C2-4B, C3-1B, and C9-5. Levels of the APC substrate HURP were measured in lysates prepared from these cells. […] The empty vector pcDNA was also stably expressed in 231 cells and used as a control.

MDA-MB-231 cells [4] = assay: DOX sensitivity, MTT viability assay, MDA-MB-231 cells expressing peptides; format: cell-based, human; details: stably transfected, 1 uM Doxorubicin 24 hours
Experimental: as §4, §5, §6, §7

Apc10 = target: T2, Apc10 (Saccharomyces cerevisiae, UniProt P53068); assay: Yeast 2-hybrid (Y2H) assay, Apc10 bait; format: binding
T2 construct: expressed in transfected cells; host or cells: yeast Y2H cells
T2 sequence (P53068 1-250): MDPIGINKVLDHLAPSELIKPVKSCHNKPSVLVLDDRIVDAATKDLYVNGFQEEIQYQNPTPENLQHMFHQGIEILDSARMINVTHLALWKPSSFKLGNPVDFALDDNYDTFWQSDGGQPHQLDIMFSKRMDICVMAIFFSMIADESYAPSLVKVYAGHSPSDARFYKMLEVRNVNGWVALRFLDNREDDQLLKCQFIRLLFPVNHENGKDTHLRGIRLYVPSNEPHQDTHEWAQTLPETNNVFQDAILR
Experimental: as §1
A library of random small peptides were cloned into a Thioredoxin (Trx) scaffold (see FIG. 9 for Trx-peptide structure) and expressed from a galactose-inducible Y2H prey vector in cells expressing the Apc10 bait vector (the modified Apc10 is still part of the complete APC complex). Six peptides that reproducibly interacted with the Apc10 bait construct in Y2H assays were identified (FIG. 1A) and were examined further. Cells will only grow in this assay if the peptide interacts with Apc5 or Apc10.
as §2, §3

APC = assay: Yeast 2-hybrid assay for binding the APC
Experimental: as §1, §2

[5] = system: apc5^CA temperature sensitive mutant; assay: Forward genetic screen, rescue of apc5^CA ts growth; format: cell-based, yeast; details: restrictive temperature
Excerpt: Using a forward genetic screen to test whether temperature sensitive (ts) APC mutants expressing random small peptides could grow at restrictive temperatures, millions of small peptides were rapidly screened for those that could restore mutant APC phenotypes. Peptides that rescued the apc5^CA ts (temperature sensitive) defect were recovered including peptides Y65 and Y36.
In the forward screens, with galactose-inducible TrxA-based peptide libraries, in cells harboring the apc5^CA ts allele, over 200 peptides (from millions screened) suppressed the ts phenotype. Several recovered plasmids were sequenced.

Cin5 = target: T3, Cin5 (Saccharomyces cerevisiae, UniProt P40917); assay: Yeast 2-hybrid with Y65 as bait to identify binding partners
T3 construct: expressed in transfected cells; host or cells: yeast Y2H cells
T3 sequence (P40917 1-295): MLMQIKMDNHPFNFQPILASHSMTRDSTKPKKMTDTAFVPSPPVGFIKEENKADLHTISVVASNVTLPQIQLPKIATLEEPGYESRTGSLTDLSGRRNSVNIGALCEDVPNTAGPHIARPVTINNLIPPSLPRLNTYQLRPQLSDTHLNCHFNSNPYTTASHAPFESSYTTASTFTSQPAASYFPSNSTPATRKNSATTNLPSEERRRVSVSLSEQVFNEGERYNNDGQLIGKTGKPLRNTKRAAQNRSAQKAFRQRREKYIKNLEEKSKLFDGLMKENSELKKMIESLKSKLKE
Excerpt: One peptide in particular, Y65, was of interest because it had homology to Elongin C (Elc1; Y65 is 20 amino acids in length, with a 7 residue stretch sharing 86% identity and 100% similarity with Elc1). Elc1 is a ubiquitin-protein ligase (E3) conserved among eukaryotes that is involved in DNA repair (Harreman et al, 2009; Ribar et al, 2007). To identify what the peptides bound in order to modify APC activity, Y65 was cloned into the Y2H bait vector and used to identify binding partners.

Compound	binds Apc5 in a yeast 2 hybrid assay (Apc5)	viability of an APC mutant [2]	levels of the APC substrate HURP [3]	binds Apc10 in a yeast 2 hybrid assay (Apc10)	other results
COc1cccc2c1C(=O)c1c(O)c3c(c(O)c1C2=O)C[C@@](O)(C(=O)CO)C[C@@H]3O[C@H]1C[C@H](N)[C@H](O)[C@H](C)O1 [Doxorubicin, reference compound]					metastatic potential / in vitro migration (MDA-MB-231 cells [1]): blocked
CECLETETFHPITRHLIVPV [C9-5]	Binds Apc5	increases the viability of an APC mutant	Only C1-8 did not reduce HURP levels		
FCL (FLC) [C1-8]			did not reduce		
GALKEVCICIVESVGGEVFS [C13-3]	Binds Apc5	increases the viability of an APC mutant			levels of the APC substrate CDC20 [3]: reduce levels; synergy with Doxorubicin (killing effect) (MDA-MB-231 cells [4]): synergize; metastatic potential / in vitro migration (MDA-MB-231 cells [1]): inhibit the in vitro migration
PSYNTIKYHETHGGRHPRRQRKRPI [C3-1]		increases the viability of an APC mutant		Binds Apc10	levels of the APC substrate CDC20 [3]: reduce levels
PVNGERWAP [C3-1B]			Only C1-8 did not reduce HURP levels	Binds Apc10	
RRCLSIRTENLAWEGKFLRV [C50-1]		increases the viability of an APC mutant		Binds Apc10	
SKWTWRMCMSWTVDRFAPVPWP [C24-1]	Binds Apc5	increases the viability of an APC mutant			
SWLNGSGGVVLWLFSNFCCG [Y36]					bind the APC in a yeast 2HY assay (APC): not bind the APC in a yeast; apc5^CA temperature sensitive (ts) growth / viability [5]: increases the viability; also recorded: rescued; also recorded: Rescues apc5^CA temperature
VRQKSDKEYERVLGLGLRRL [Y65]					bind the APC in a yeast 2HY assay (APC): not bind the APC in a yeast; Interacts with Cin5 in a yeast 2 hybrid assay (Cin5): One peptide binding partner was isolated, Cin5; apc5^CA temperature sensitive (ts) growth / viability [5]: increases the viability; also recorded: rescued; also recorded: Rescues apc5^CA temperature
